# Legend:
# [1] = system: ADAM17-mediated MSLN shedding; experiment: Cell surface mesothelin on Nomo-1 by flow cytometry after GM6001; assay type: cell-based; settings: Nomo-1 cells, GM6001 50 uM, 48 hours, vs DMSO control
# Description: Cell surface abundance and viability were measured by flow cytometry (FIG. 2A) and shed MSLN was quantified by ELISA (FIG. 2B). […] Data presented are mean tumor specific lysis+/−standard deviation from 3 technical replicates at indicated E:T ratios for 3 independent experiments. […] Secreted levels of IFN-g (left panel) and TNF-a (right panel) were measured after 8 hours of T cell/AML co-culture at E:T 10:1 by ELISA. Data presented are mean+/−standard deviation from 3 technical replicates. Statistical significance was determined by unpaired Student's t test, assuming unequal variances. p<0.05(*), p<0.005(**), p<0.0005(***).
# Nomo-1 and Kasumi-1 were obtained from ATCC and maintained in RPMI with FBS (10% for Nomo-1, 20% for Kasumi-1) and L-glutamine (2 mM). […] The Kasumi-1 MSLN+ cell line was engineered by transducing Kasumi-1 cells with a lentivirus encoding MSLN driven by the ELF1a promoter.
# For in vivo CAR T study, Nomo-1 cells, which express endogenous level of MSLN, and Kasumi-1 cells engineered to express MSLN with a lentivirus construct (Kasumi-1 MSLN+) were transplanted into NSG mice. Mock transduced MSLN-directed CAR T cells were infused 1 week (Nomo-1) and 2 weeks (Kasumi-1 MSLN+) following leukemic cell injection. Leukemic burden was measured by bioluminescence IVIS imaging weekly.
# [2] = system: Nomo-1 cells; experiment: Viability of Nomo-1 cells after GM6001 without CAR T cells; assay type: cell-based; settings: GM6001 treatment, data not shown
# From the text: FIGS. 2A-2D. […] FIGS. 2A-2B. […] FIG. 2C. […] FIG. 2D.
# AML cell lines and GM6001 treatment.
structure (smiles),measurement,setting,value
CNC(=O)[C@H](Cc1c[nH]c2ccccc12)NC(=O)[C@@H](CC(=O)NO)CC(C)C [GM6001],level of cell surface mesothelin,[1],increased
same,cell viability of Nomo-1 cells in the absence of CAR T cells,[2],did not significantly impact

# From patent US20240009239A1, “THERAPEUTIC TARGETING OF MESOTHELIN IN ACUTE MYELOID LEUKEMIA WITH CHIMERIC ANTIGEN RECEPTOR T CELL THERAPY” (FRED HUTCHINSON CANCER CENTER, priority 2020, published 2024)
